# Assay results taken from patent US20260226048A1, “MULTI-CYCLIC IRAK AND FLT3 INHIBITING COMPOUNDS AND USES THEREOF” (CHILDREN'S HOSPITAL MEDICAL CENTER, priority 2023, published 2026).
# How the values were obtained:
# [1] = test system: MOLM14 F691L cells; assay: MOLM14 F691L cell viability assay (Cell Titer Glo); assay type: cell-based; conditions: Homo sapiens, MOLM-14; cell viability, Cell Titer Glo, 48 hours; read-out: MOLM14 F691L IC50
# Method: (§1) Both cell lines have activated FLT3 receptors, each of which carry additional resistance mutations in the kinase domain (D835Y and F691L, respectively).
# (§2) For viability/cytotoxicity assessments, cells were seeded into 1536-well white polystyrene tissue culture-treated Greiner plates using a Multidrop Combi dispenser (ThermoFisher), in final volume 5 μL of growth media per well, at a density of 1000 cells per well. […] Plates were incubated for 48 hours at standard incubator conditions covered by a stainless steel gasketed lid to prevent evaporation. 48 hours post compound addition, 3 μL of Cell Titer Glo (Promega) were added to each well and plates were incubated at room temperature for 15 minutes with the stainless-steel lid in place. Luminescence readings were taken using a Viewlux imager (PerkinElmer) with a 2 second exposure time per plate.
# [2] = target: T1, FLT3 (Homo sapiens, UniProt P36888); assay: RBC HotSpot Kinase Assay, FLT3; assay type: biochemical; design: purchased Reaction Biology (RBC HotSpot); conditions: isolated kinase enzyme, 33P-ATP, P81 filter-binding
# T1 sequence (P36888 27-993): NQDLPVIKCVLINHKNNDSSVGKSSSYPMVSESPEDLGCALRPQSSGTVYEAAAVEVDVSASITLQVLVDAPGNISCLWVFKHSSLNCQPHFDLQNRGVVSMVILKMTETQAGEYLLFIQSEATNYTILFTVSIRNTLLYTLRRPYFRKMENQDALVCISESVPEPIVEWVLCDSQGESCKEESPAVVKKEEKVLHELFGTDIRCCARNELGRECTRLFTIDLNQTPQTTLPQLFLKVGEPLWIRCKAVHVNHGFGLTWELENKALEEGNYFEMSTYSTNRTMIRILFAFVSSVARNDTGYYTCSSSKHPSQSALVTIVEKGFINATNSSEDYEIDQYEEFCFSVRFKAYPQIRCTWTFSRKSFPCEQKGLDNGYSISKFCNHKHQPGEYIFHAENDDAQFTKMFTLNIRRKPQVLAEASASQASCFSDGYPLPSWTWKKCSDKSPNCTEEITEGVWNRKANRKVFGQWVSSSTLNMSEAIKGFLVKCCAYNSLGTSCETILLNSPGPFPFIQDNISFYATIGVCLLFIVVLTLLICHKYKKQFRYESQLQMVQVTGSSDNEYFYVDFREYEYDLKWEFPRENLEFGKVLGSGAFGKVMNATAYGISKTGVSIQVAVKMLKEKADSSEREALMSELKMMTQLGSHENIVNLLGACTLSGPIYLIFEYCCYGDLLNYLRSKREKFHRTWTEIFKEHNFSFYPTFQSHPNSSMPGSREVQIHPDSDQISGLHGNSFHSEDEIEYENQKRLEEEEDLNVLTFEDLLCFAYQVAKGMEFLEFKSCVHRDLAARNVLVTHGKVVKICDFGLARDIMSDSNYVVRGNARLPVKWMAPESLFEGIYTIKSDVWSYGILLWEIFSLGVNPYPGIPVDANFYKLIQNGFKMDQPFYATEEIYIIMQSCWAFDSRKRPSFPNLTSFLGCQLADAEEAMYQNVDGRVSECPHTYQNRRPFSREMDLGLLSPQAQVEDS
# Excerpt: (§3) This assay uses the isolated kinase enzyme. […] Unlike kinase binding assays that measure competition for ATP, the HotSpot Kinase Assay is a functional assay that measures catalytic activity; as such it measures relative functional potency regardless of the mechanism of enzyme inhibition. This assay uses the form of the various enzymes that are easiest to express, which may not necessarily be the form of the enzyme that exist in the cell. (Sometimes the carboxy terminus has been truncated to aid in expression, or, if it is a receptor kinase, the enzyme itself is isolated from the other parts of the receptor that are involved in regulating kinase activity.)
# (§4) The reagent used was as follows: Base Reaction buffer; 20 mM Hepes (pH 7.5), 10 mM MgCl2, 1 mM EGTA, 0.01% Brij35, 0.02 mg/ml BSA, 0.1 mM Na3VO4, 2 mM DTT, 1% DMSO. Required cofactors were added individually to each kinase reaction.
# [3] = target: T2, IRAK4 (Homo sapiens, UniProt Q9NWZ3); assay: RBC HotSpot Kinase Assay, IRAK4; assay type: biochemical; design: purchased Reaction Biology (RBC HotSpot); conditions: isolated kinase enzyme, 33P-ATP, P81 filter-binding
# T2 sequence (Q9NWZ3 1-460): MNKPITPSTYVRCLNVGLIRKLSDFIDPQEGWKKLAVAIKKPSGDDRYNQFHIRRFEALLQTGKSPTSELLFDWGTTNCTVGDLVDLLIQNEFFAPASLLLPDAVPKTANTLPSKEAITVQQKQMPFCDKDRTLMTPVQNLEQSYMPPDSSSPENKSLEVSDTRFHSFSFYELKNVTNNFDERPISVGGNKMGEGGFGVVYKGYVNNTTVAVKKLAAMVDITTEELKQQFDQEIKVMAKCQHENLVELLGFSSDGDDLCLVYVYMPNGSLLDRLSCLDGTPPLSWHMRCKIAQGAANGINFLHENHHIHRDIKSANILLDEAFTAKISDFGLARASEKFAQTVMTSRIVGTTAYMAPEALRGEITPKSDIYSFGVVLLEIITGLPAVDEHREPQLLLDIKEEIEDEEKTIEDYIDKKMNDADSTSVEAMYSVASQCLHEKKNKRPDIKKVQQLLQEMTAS
# Excerpt: as §3, with “enzyme. This assay is very useful for determining competition of the inhibitor for ATP and/or substrates and for measuring the kinetics of enzyme inhibition.” for “enzyme.”
# as §4
# The reaction procedure was as follows: • 1) Substrates were prepared in freshly prepared Reaction Buffer. • 2) Any required cofactors were delivered to the substrate solution above. • 3) Kinase was delivered into the substrate solution and gently mixed. • 4) Compounds were delivered in 1000A DM into the kinase reaction mixture by Acoustic technology (Echo550; nanoliter range), followed by incubation for 20 min at room temp. • 5) 33P-ATP was delivered into the reaction mixture to initiate the reaction. • 6) The mixture was incubated for 2 hours at room temperature. • 7) Kinase activity was detected by P81 filter-binding method.
# [4] = target: T3, IRAK1 (Homo sapiens, UniProt P51617); assay: RBC HotSpot Kinase Assay, IRAK1; assay type: biochemical; conditions: isolated kinase enzyme, 33P-ATP, P81 filter-binding
# T3 construct: purchased Reaction Biology (RBC HotSpot)
# Excerpt: as §3, §4
# [5] = test system: MOLM14 D835Y cells; assay: MOLM14 D835Y cell viability assay (Cell Titer Glo); assay type: cell-based; conditions: Homo sapiens, MOLM-14, 48 h, cell viability, Cell Titer Glo, 48 hours; read-out: MOLM14 D835Y IC50
# Method: as §1, §2
# T3 sequence (P51617 whole entry): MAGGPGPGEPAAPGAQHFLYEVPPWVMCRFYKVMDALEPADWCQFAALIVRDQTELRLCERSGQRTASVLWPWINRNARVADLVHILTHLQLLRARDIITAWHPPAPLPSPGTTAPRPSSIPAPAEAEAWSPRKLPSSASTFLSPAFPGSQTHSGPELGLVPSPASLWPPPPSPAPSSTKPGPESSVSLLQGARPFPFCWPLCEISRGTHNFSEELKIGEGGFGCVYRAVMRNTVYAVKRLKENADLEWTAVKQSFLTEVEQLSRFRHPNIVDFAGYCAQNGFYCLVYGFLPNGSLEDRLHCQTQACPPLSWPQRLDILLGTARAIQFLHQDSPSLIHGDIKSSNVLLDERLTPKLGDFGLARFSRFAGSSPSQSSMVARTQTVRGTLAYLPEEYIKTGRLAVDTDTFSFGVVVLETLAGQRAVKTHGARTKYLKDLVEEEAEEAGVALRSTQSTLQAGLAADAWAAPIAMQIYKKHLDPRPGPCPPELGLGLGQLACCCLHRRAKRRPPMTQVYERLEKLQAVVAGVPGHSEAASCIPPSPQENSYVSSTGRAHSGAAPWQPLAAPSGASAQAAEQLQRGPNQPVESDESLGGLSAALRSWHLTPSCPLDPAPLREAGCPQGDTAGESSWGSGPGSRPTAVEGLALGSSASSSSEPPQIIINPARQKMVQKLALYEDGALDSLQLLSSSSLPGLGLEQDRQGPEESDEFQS
Structure (SMILES),IC50 [1],IC50 [2],IC50 [3],IC50 [4],IC50 [5]
"FC(F)COc1cc2ncc(-c3cncc(N[C@H]4CNCC[C@@H]4F)n3)n2nc1C1CC1 [Compound 7a, 6-(6-cyclopropyl-7-(2,2-difluoroethoxy)imidazo[1,2-b]pyridazin-3-yl)-N-((3 S,4S)-4-fluoropiperidin-3-yl)pyrazin-2-amine]",20 nM,< 0.5 nM,2 nM,73 nM,10 nM
"c1cc(-c2cnc3cc(OC4CC4)c(C4CC4)nn23)nc(N[C@@H]2CCCNC2)n1 [Compound 11a, (R)-4-(7-cyclopropoxy-6-cyclopropylimidazo[1,2-b]pyridazin-3-yl)-N-(piperidin-3-yl)pyrimidin-2-amine]",80 nM,< 0.5 nM,5 nM,52 nM,22 nM
"F[C@H]1CNC[C@@H]1Nc1cncc(-c2cnc3cc(OC4CC4)c(C4CC4)nn23)n1 [Compound 14a, 6-(7-cyclopropoxy-6-cyclopropylimidazo[1,2-b]pyridazin-3-yl)-N-((3S,4S)-4-fluoropyrrolidin-3-yl)pyrazin-2-amine]",318 nM,< 0.5 nM,16 nM,117 nM,101 nM
"c1ncc(-c2cnc3cc(OC4CC4)c(C4CC4)nn23)nc1N[C@@H]1CCCNC1 [Compound 15a, (R)-6-(7-cyclopropoxy-6-cyclopropylimidazo[1,2-b]pyridazin-3-yl)-N-(piperidin-3-yl)pyrazin-2-amine]",113 nM,< 0.5 nM,18 nM,258 nM,45 nM
"COc1cc2ncc(-c3nc(N[C@H]4CNC[C@@H]4F)ncc3F)n2nc1C1CCC1 [Compound 52a, 4-(6-cyclobutyl-7-methoxyimidazo[1,2-b]pyridazin-3-yl)-5-fluoro-N-((3S,4S)-4-fluoropyrrolidin-3-yl)pyrimidin-2-amine]",45 nM,< 0.5 nM,0.9 nM,0.8 nM,3 nM
"COc1cc2ncc(-c3nc(N[C@@H]4CCCNC4)ncc3F)n2nc1C1CCC1 [Compound 53a, (R)-4-(6-cyclobutyl-7-methoxyimidazo[1,2-b]pyridazin-3-yl)-5-fluoro-N-(piperidin-3-yl)pyrimidin-2-amine]",10 nM,< 0.5 nM,< 0.5 nM,1 nM,1 nM
"COc1cc2ncc(-c3nc(N[C@H]4CNC[C@@H]4F)ncc3F)n2nc1C1CC(C)(C)C1 [Compound 55a, 4-(6-(3,3-dimethylcyclobutyl)-7-methoxyimidazo[1,2-b]pyridazin-3-yl)-5-fluoro-N-((3S,4S)-4-fluoropyrrolidin-3-yl)pyrimidin-2-amine]",225 nM,< 0.5 nM,2 nM,5 nM,28 nM
"COc1cc2ncc(-c3nc(N[C@@H]4CCCNC4)ncc3F)n2nc1C1CC(C)(C)C1 [Compound 56a, (R)-4-(6-(3,3-dimethylcyclobutyl)-7-methoxyimidazo[1,2-b]pyridazin-3-yl)-5-fluoro-N-(piperidin-3-yl)pyrimidin-2-amine]",71 nM,< 0.5 nM,2 nM,0.7 nM,8 nM
"COc1cc2ncc(-c3nc(N[C@H]4CNC[C@@H]4F)ncc3F)n2nc1C1CC2(CCC2)C1 [Compound 58a, 5-fluoro-N-((3S,4S)-4-fluoropyrrolidin-3-yl)-4-(7-methoxy-6-(spiro[3.3]heptan-2-yl)imidazo[1,2-b]pyridazin-3-yl)pyrimidin-2-amine]",127 nM,< 0.5 nM,5 nM,7 nM,14 nM
"COc1cc2ncc(-c3nc(N[C@H]4CNC[C@@H]4F)ncc3F)n2nc1C1CCCC1 [Compound 61a, 4-(6-cyclopentyl-7-methoxyimidazo[1,2-b]pyridazin-3-yl)-5-fluoro-N-((3S,4S)-4-fluoropyrrolidin-3-yl)pyrimidin-2-amine]",28 nM,< 0.5 nM,< 0.5 nM,< 0.5 nM,3 nM
"COc1cc2ncc(-c3cncc(N[C@H]4CNC[C@@H]4F)n3)n2nc1C1CC(F)(F)C1 [Compound 71a, 6-(6-(3,3-difluorocyclobutyl)-7-methoxyimidazo[1,2-b]pyridazin-3-yl)-N-((3S,4S)-4-fluoropyrrolidin-3-yl)pyrazin-2-amine]",,1 nM,64 nM,342 nM,576 nM
"COc1cc2ncc(-c3cncc(N[C@@H]4CCCNC4)n3)n2nc1C1CC(F)(F)C1 [Compound 72a, (R)-6-(6-(3,3-difluorocyclobutyl)-7-methoxyimidazo[1,2-b]pyridazin-3-yl)-N-(piperidin-3-yl)pyrazin-2-amine]",,0.8 nM,60 nM,127 nM,289 nM
"COc1cc2ncc(-c3cncc(N[C@H]4CNCC[C@@H]4F)n3)n2nc1C1CC(F)(F)C1 [Compound 73a, 6-(6-(3,3-difluorocyclobutyl)-7-methoxyimidazo[1,2-b]pyridazin-3-yl)-N-((3S,4S)-4-fluoropiperidin-3-yl)pyrazin-2-amine]",,< 0.5 nM,12 nM,129 nM,204 nM
"COc1cc2ncc(-c3ccnc(N[C@@H]4CCCNC4)n3)n2nc1C1CCC1 [Compound 78a, (R)-4-(6-cyclobutyl-7-methoxyimidazo[1,2-b]pyridazin-3-yl)-N-(piperidin-3-yl)pyrimidin-2-amine]",,< 0.5 nM,7 nM,75 nM,29 nM
